Assay results as given in patent US20090311217A1, “3-SUBSTITUTED-1H-INDOLE COMPOUNDS, THEIR USE AS MTOR KINASE AND PI3 KINASE INHIBITORS, AND THEIR SYNTHESES” (priority 2008, published 2009).

What was measured:
PI3K-alpha = PI3K-alpha (Homo sapiens, UniProt P42336); assay: PI3K-alpha fluorescence polarization assay; format: biochemical; settings: read-out: PI3Kα Avg. IC50
human TOR = target: T1, human TOR (Homo sapiens, UniProt P42345); assay: mTOR enzyme assay (DELFIA, His6-S6K substrate); format: biochemical; settings: read-out: mTOR Kinase Avg. IC50
T1 construct: FLAG

PI3K-alpha, sequence (P42336 whole entry, species assumed): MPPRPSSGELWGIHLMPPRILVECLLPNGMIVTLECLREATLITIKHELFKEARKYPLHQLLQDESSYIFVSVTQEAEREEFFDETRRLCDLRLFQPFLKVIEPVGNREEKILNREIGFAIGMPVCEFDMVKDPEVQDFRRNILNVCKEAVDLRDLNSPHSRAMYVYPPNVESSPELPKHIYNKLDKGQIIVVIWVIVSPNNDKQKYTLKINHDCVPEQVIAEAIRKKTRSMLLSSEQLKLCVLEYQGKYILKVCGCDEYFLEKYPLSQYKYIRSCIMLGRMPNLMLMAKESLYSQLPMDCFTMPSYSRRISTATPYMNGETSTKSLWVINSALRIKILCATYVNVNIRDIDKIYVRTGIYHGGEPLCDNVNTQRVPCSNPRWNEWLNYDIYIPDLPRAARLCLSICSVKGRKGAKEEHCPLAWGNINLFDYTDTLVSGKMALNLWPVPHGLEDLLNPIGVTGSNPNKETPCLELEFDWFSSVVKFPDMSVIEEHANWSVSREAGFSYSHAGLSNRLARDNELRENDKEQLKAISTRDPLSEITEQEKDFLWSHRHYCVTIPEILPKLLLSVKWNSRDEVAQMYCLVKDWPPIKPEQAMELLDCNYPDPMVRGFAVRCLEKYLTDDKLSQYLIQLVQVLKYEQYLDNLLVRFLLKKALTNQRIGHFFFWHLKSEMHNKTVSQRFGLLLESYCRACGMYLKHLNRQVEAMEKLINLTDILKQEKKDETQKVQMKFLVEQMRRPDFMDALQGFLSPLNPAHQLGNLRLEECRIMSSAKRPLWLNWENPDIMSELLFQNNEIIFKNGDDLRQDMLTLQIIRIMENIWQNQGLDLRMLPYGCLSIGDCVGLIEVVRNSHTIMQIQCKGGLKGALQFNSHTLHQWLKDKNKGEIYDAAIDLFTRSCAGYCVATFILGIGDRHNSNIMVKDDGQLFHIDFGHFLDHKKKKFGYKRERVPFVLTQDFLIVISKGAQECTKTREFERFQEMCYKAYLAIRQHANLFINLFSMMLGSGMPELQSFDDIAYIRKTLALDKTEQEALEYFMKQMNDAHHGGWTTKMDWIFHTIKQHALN
PI3K-alpha, sequence (P27986 whole entry partner, species assumed): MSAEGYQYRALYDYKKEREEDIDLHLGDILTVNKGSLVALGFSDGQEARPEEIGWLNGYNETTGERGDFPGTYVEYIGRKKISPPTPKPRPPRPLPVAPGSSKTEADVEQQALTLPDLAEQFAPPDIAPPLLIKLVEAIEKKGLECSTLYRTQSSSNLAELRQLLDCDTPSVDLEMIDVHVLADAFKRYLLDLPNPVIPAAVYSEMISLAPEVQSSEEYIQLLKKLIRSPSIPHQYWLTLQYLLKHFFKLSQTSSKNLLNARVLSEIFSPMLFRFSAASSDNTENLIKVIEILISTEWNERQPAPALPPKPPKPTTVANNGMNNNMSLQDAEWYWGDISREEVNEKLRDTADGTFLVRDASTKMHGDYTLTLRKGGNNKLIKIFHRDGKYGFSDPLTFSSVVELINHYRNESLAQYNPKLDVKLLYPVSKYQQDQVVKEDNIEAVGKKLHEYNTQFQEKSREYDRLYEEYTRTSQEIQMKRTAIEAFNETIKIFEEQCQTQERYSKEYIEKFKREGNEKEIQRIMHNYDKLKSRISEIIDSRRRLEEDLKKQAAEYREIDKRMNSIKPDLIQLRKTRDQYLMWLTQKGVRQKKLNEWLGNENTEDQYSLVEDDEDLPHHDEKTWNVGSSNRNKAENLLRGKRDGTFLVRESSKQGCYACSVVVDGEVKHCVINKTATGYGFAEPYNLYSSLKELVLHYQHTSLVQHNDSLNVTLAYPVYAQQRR

## Cn1c(-c2cccc(O)c2)c(C=C2Oc3cc(O)cc(O)c3C2=O)c2ccccc21 [Example 192, 4,6-dihydroxy-2-{[2-(3-hydroxyphenyl)-1-methyl-1H-indol-3-yl]methylene}-1-benzofuran-3(2H)-one]
PI3K-alpha
  IC50: 2420 nM
Human TOR
  IC50: 390 nM

## COc1ccc(-c2c(C=C3Oc4cc(O)cc(O)c4C3=O)c3ccccc3n2C)cc1 [Example 195, 4,6-dihydroxy-2-{[2-(4-methoxyphenyl)-1-methyl-1H-indol-3-yl]methylene}-1-benzofuran-3(2H)-one]
PI3K-alpha
  IC50: 1030 nM
Human TOR
  IC50: 380 nM

## COc1cccc(-c2c(C=C3Oc4cc(O)cc(O)c4C3=O)c3ccccc3n2C)c1 [Example 196, 4,6-dihydroxy-2-{[2-(3-methoxyphenyl)-1-methyl-1H-indol-3-yl]methylene}-1-benzofuran-3(2H)-one]
PI3K-alpha
  IC50: 1690 nM
Human TOR
  IC50: 390 nM

## CN(C)c1ccc(-c2c(C=C3Oc4cc(O)cc(O)c4C3=O)c3ccccc3n2C)cc1 [Example 198, 2-({2-[4-(dimethylamino)phenyl]-1-methyl-1H-indol-3-yl}methylene)-4,6-dihydroxy-1-benzofuran-3(2H)-one]
PI3K-alpha
  IC50: 4870 nM
Human TOR
  IC50: 4500 nM

## Cn1c(-c2ccc(F)c(Cl)c2)c(C=C2Oc3cc(O)cc(O)c3C2=O)c2ccccc21 [Example 199, 2-{[2-(3-chloro-4-fluorophenyl)-1-methyl-1H-indol-3-yl]methylene}-4,6-dihydroxy-1-benzofuran-3(2H)-one]
PI3K-alpha
  IC50: 1560 nM
Human TOR
  IC50: 1400 nM

## O=C1C(=Cc2c(-c3ccsc3)[nH]c3ccccc23)Oc2cc(O)cc(O)c21 [Example 207, 4,6-dihydroxy-2-{[2-(3-thienyl)-1H-indol-3-yl]methylene}-1-benzofuran-3(2H)-one]
PI3K-alpha
  IC50: 1290 nM
Human TOR
  IC50: 300 nM

## COc1ccc(-c2[nH]c3ccccc3c2C=C2Oc3cc(O)cc(O)c3C2=O)cc1 [Example 208, 4,6-dihydroxy-2-{[2-(4-methoxyphenyl)-1H-indol-3-yl]methylene}-1-benzofuran-3(2H)-one]
PI3K-alpha
  IC50: 954 nM
Human TOR
  IC50: 300 nM

## COc1cccc(-c2[nH]c3ccccc3c2C=C2Oc3cc(O)cc(O)c3C2=O)c1 [Example 209, 4,6-dihydroxy-2-{[2-(3-methoxyphenyl)-1H-indol-3-yl]methylene}-1-benzofuran-3(2H)-one]
PI3K-alpha
  IC50: 1160 nM
Human TOR
  IC50: 490 nM

## CN(C)c1ccc(-c2[nH]c3ccccc3c2C=C2Oc3cc(O)cc(O)c3C2=O)cc1 [Example 211, 2-({2-[4-(dimethylamino)phenyl]-1H-indol-3-yl}methylene)-4,6-dihydroxy-1-benzofuran-3(2H)-one]
PI3K-alpha
  IC50: 1060 nM
Human TOR
  IC50: 590 nM

## O=C1C(=Cc2c(-c3ccc(F)c(Cl)c3)[nH]c3ccccc23)Oc2cc(O)cc(O)c21 [Example 212, 2-{[2-(3-chloro-4-fluorophenyl)-1H-indol-3-yl]methylene}-4,6-dihydroxy-1-benzofuran-3(2H)-one]
PI3K-alpha
  IC50: 1060 nM
Human TOR
  IC50: 640 nM

## CCCn1c(-c2ccccc2)c(C=C2Oc3cc(O)cc(O)c3C2=O)c2ccccc21 [Example 214, 4,6-dihydroxy-2-[(2-phenyl-1-propyl-1H-indol-3-yl)methylene]-1-benzofuran-3(2H)-one]
PI3K-alpha
  IC50: 4910 nM
Human TOR
  IC50: 2550 nM

## CC(=O)Nc1ccc2[nH]c(C)c(C=C3Oc4cc(O)cc(O)c4C3=O)c2c1 [Example 216, N-{3-[(4,6-dihydroxy-3-oxo-1-benzofuran-2(3H)-ylidene)methyl]-2-methyl-1H-indol-5-yl}acetamide]
PI3K-alpha
  IC50: 9500 nM
Human TOR
  IC50: 11500 nM

## Cc1[nH]c2c(Br)cccc2c1C=C1Oc2cc(O)cc(O)c2C1=O [Example 217, 2-[(7-bromo-2-methyl-1H-indol-3-yl)methylene]-4,6-dihydroxy-1-benzofuran-3(2H)-one]
PI3K-alpha
  IC50: 1420 nM
Human TOR
  IC50: 2400 nM

## Cc1[nH]c2ccc(F)cc2c1C=C1Oc2cc(O)cc(O)c2C1=O [Example 218, 2-[(5-fluoro-2-methyl-1H-indol-3-yl)methylene]-4,6-dihydroxy-1-benzofuran-3(2H)-one]
PI3K-alpha
  IC50: 796 nM
Human TOR
  IC50: 1650 nM

## COc1ccc2[nH]cc(C=C3Oc4cc(O)cc(O)c4C3=O)c2c1C [Example 219, 4,6-dihydroxy-2-[(5-methoxy-4-methyl-1H-indol-3-yl)methylene]-1-benzofuran-3(2H)-one]
PI3K-alpha
  IC50: 1000 nM
Human TOR
  IC50: > 20000 nM

## N#Cc1cccc2[nH]cc(C=C3Oc4cc(O)cc(O)c4C3=O)c12 [Example 220, 3-[(4,6-dihydroxy-3-oxo-1-benzofuran-2(3H)-ylidene)methyl]-1H-indole-4-carbonitrile]
PI3K-alpha
  IC50: 1980 nM
Human TOR
  IC50: 4300 nM

## O=C1C(=Cc2c[nH]c3cc(C(F)(F)F)ccc23)Oc2cc(O)cc(O)c21 [Example 221, 4,6-dihydroxy-2-{[6-(trifluoromethyl)-1H-indol-3-yl]methylene}-1-benzofuran-3(2H)-one]
PI3K-alpha
  IC50: 1160 nM
Human TOR
  IC50: > 20000 nM

## COC(=O)c1cccc2[nH]cc(C=C3Oc4cc(O)cc(O)c4C3=O)c12 [Example 222, methyl 3-[(4,6-dihydroxy-3-oxo-1-benzofuran-2(3H)-ylidene)methyl]-1H-indole-4-carboxylate]
PI3K-alpha
  IC50: 4460 nM
Human TOR
  IC50: 2100 nM

## Cc1c(C=C2Oc3cc(O)cc(O)c3C2=O)c2cc(Cl)ccc2n1C [Example 233, 2-[(5-chloro-1,2-dimethyl-1H-indol-3-yl)methylene]-4,6-dihydroxy-1-benzofuran-3(2H)-one]
PI3K-alpha
  IC50: 2040 nM
Human TOR
  IC50: 850 nM

## Cc1c(C=C2Oc3cc(O)cc(O)c3C2=O)c2cccc(Br)c2n1C [Example 234, 2-[(7-bromo-1,2-dimethyl-1H-indol-3-yl)methylene]-4,6-dihydroxy-1-benzofuran-3(2H)-one]
PI3K-alpha
  IC50: > 10000 nM
Human TOR
  IC50: 14000 nM

## COc1ccc2c(c(C=C3Oc4cc(O)cc(O)c4C3=O)cn2C)c1C [Example 236, 4,6-dihydroxy-2-[(5-methoxy-1,4-dimethyl-1H-indol-3-yl)methylene]-1-benzofuran-3(2H)-one]
PI3K-alpha
  IC50: 1470 nM
Human TOR
  IC50: 1600 nM

## Cn1cc(C=C2Oc3cc(O)cc(O)c3C2=O)c2ccc(C(F)(F)F)cc21 [Example 237, 4,6-dihydroxy-2-{[1-methyl-6-(trifluoromethyl)-1H-indol-3-yl]methylene}-1-benzofuran-3(2H)-one]
PI3K-alpha
  IC50: 2480 nM
Human TOR
  IC50: > 20000 nM

## COc1ccc2c(c(C=C3Oc4cc(O)cc(O)c4C3=O)cn2CCCC#N)c1C [Example 239, 4-{3-[(4,6-dihydroxy-3-oxo-1-benzofuran-2(3H)-ylidene)methyl]-5-methoxy-4-methyl-1H-indol-1-yl}butanenitrile]
PI3K-alpha
  IC50: 4940 nM
Human TOR
  IC50: 5900 nM

## Cc1c(C=C2Oc3cc(O)cc(O)c3C2=O)c2ccccc2n1CCCC#N [Example 240, 4-{3-[(4,6-dihydroxy-3-oxo-1-benzofuran-2(3H)-ylidene)methyl]-2-methyl-1H-indol-1-yl}butanenitrile]
PI3K-alpha
  IC50: 3330 nM
Human TOR
  IC50: 2700 nM

## N#CCCCn1cc(C=C2Oc3cc(O)cc(O)c3C2=O)c2ccccc21 [Example 241, 4-{3-[(4,6-dihydroxy-3-oxo-1-benzofuran-2(3H)-ylidene)methyl]-1H-indol-1-yl}butanenitrile]
PI3K-alpha
  IC50: 4710 nM
Human TOR
  IC50: > 20000 nM

## O=C1C(=Cc2c[nH]c3cccc(OCc4ccccc4)c23)Oc2cc(O)cc(O)c21 [Example 243, 2-{[4-(benzyloxy)-1H-indol-3-yl]methylene}-4,6-dihydroxy-1-benzofuran-3(2H)-one]
PI3K-alpha
  IC50: 1050 nM
Human TOR
  IC50: 480 nM

## O=C1C(=Cc2c[nH]c3c(Br)cccc23)Oc2cc(O)cc(O)c21 [Example 244, 2-[(7-bromo-1H-indol-3-yl)methylene]-4,6-dihydroxy-1-benzofuran-3(2H)-one]
PI3K-alpha
  IC50: 1960 nM
Human TOR
  IC50: 18000 nM

## COC(=O)c1cccc2c(C=C3Oc4cc(O)cc(O)c4C3=O)c[nH]c12 [Example 245, methyl 3-[(4,6-dihydroxy-3-oxo-1-benzofuran-2(3H)-ylidene)methyl]-1H-indole-7-carboxylate]
PI3K-alpha
  IC50: 1490 nM
Human TOR
  IC50: > 20000 nM

## Cc1c(C=C2Oc3cc(O)cc(O)c3C2=O)c2ccccc2n1C [Example 247, 2-[(1,2-dimethyl-1H-indol-3-yl)methylene]-4,6-dihydroxy-1-benzofuran-3(2H)-one]
PI3K-alpha
  IC50: 3150 nM
Human TOR
  IC50: 2900 nM

## Cn1cc(C=C2Oc3cc(O)cc(O)c3C2=O)c2cccc(Br)c21 [Example 249, 2-[(7-bromo-1-methyl-1H-indol-3-yl)methylene]-4,6-dihydroxy-1-benzofuran-3(2H)-one]
PI3K-alpha
  IC50: 4810 nM
Human TOR
  IC50: > 20000 nM

## COC(=O)c1cccc2c(C=C3Oc4cc(O)cc(O)c4C3=O)cn(C)c12 [Example 250, methyl 3-[(4,6-dihydroxy-3-oxo-1-benzofuran-2(3H)-ylidene)methyl]-1-methyl-1H-indole-7-carboxylate]
PI3K-alpha
  IC50: 3550 nM
Human TOR
  IC50: > 20000 nM

## COc1cccc2c(C=C3Oc4cc(O)cc(O)c4C3=O)cn(C)c12 [Example 251, 4,6-dihydroxy-2-[(7-methoxy-1-methyl-1H-indol-3-yl)methylene]-1-benzofuran-3(2H)-one]
PI3K-alpha
  IC50: 2390 nM
Human TOR
  IC50: > 20000 nM

## Cn1cc(C=C2Oc3cc(O)cc(O)c3C2=O)c2c(Cl)cccc21 [Example 252, 2-[(4-chloro-1-methyl-1H-indol-3-yl)methylene]-4,6-dihydroxy-1-benzofuran-3(2H)-one]
PI3K-alpha
  IC50: 555 nM
Human TOR
  IC50: 1500 nM

## Cn1cc(C=C2Oc3cc(O)cc(O)c3C2=O)c2c(Br)cccc21 [Example 253, 2-[(4-bromo-1-methyl-1H-indol-3-yl)methylene]-4,6-dihydroxy-1-benzofuran-3(2H)-one]
PI3K-alpha
  IC50: 1430 nM
Human TOR
  IC50: 3300 nM

## Cn1cc(C=C2Oc3cc(O)cc(O)c3C2=O)c2c(O)cccc21 [Example 254, 4,6-dihydroxy-2-[(4-hydroxy-1-methyl-1H-indol-3-yl)methylene]-1-benzofuran-3(2H)-one]
PI3K-alpha
  IC50: 1660 nM
Human TOR
  IC50: 650 nM

## COc1cccc2c1c(C=C1Oc3cc(O)cc(O)c3C1=O)cn2C [Example 255, 4,6-dihydroxy-2-[(4-methoxy-1-methyl-1H-indol-3-yl)methylene]-1-benzofuran-3(2H)-one]
PI3K-alpha
  IC50: 2460 nM
Human TOR
  IC50: 300 nM
